Laboratory results reported in PMC10387993, “New pyrimidine-N-β-D-glucosides: synthesis, biological evaluation, and molecular docking investigations” (Turkish Journal of Chemistry, 2023).
Converted amounts (≈) assume the structure as drawn. Read-outs that look alike come from different tables or passages of the source.

Columns and labels:
Assay type in all cases: cell-based
[1] = LDH cytotoxic activity assay, HT29; conditions: human, HT29 cells
Procedure: (§1) The cell lines were cultured in a cell medium (Dulbecco’s modified eagle’s or RPMI 1640) enriched with 10% (v/v) fetal bovine serum and 2% (v/v) Penicillin-Streptomycin (10,000 U/mL). First, old medium was removed out of the flask when the cells reached approximately 80% confluence. Next, cells were taken from the flasks surface using trypsin-EDTA solution and then subjected to centrifugation. Following, the cell pellet was suspended with fresh media and was inoculated into wells.
(§2) Approximately 5 × 10^3 cells in 100 μL were placed into 96-well plates as triplicates and treated with 25, 50, 75, and 100 μg/mL concentrations of test compounds at 37 °C with 5% CO2 for 24 h. LDH activity was obtained by determining absorbance at 492–630 nm using a microplate reader.

[2] = test system: E. coli ATCC 25922; experiment: Microdilution MIC assay; conditions: Escherichia coli, ATCC25922; E. coli ATCC 25922, 24 h at 35 °C
Procedure: (§3) MIC values of the compounds against bacterial strains were determined on the basis of a microwell dilution method. […] […]. Growth of microorganisms was determined visually after incubation for 24 h at 35 °C. The lowest concentration at which there was no visible growth (turbidity) was taken as the MIC.

[3] = test system: P. aeruginosa AGME ATCC 27853; experiment: Microdilution MIC assay; conditions: Pseudomonas aeruginosa, ATCC27853; P. aeruginosa AGME ATCC 27853, 24 h at 35 °C
Procedure: as §3

[4] = test system: S. aureus MSSA ATCC 29213; experiment: Microdilution MIC assay; conditions: Staphylococcus aureus, 24 h, S. aureus MSSA ATCC 29213, 24 h at 35 °C; read-out: MIC
Procedure: as §3

[5] = test system: S. aureus MRSA ATCC 46300; experiment: Microdilution MIC assay; conditions: Staphylococcus aureus; S. aureus MRSA ATCC 46300, 24 h at 35 °C; read-out: MIC
Procedure: as §3

[6] = test system: E. coli ESBL ATCC 35218; experiment: Microdilution MIC assay; conditions: Escherichia coli, ATCC35218; E. coli ESBL ATCC 35218, 24 h at 35 °C
Procedure: as §3

[7] = test system: S. mutans ATCC 35668; experiment: Microdilution MIC assay; conditions: S. mutans ATCC 35668, 24 h at 35 °C
Procedure: as §3

[8] = LDH cytotoxic activity assay, HeLa; conditions: human, HeLa cells
Procedure: as §1, §2

[9] = LDH cytotoxic activity assay, C6; conditions: rat, C6 glioma cells
Procedure: as §1, §2

[10] = test system: MCF7; experiment: cells; conditions: Homo sapiens
Procedure: as §1
(§4) A cell suspension containing approximately 1 × 10^4 cells in 100 μL was seeded into the wells of 96-well culture plates. […]. The final volume of the wells was set to 200 μL by medium. Cell proliferation assay was evaluated by MTT (yellow tetrazolium MTT (3-(4,5-dimethylthiazolyl-2)-2,5-diphenyltetrazolium bromide) methods. Briefly, an MTT stock solution (5 mg of MTT/mL of distilled water) was filtered and kept at −20 °C until use. The cells were exposed to an MTT reagent (consisting of one parts of MTT stock solutions and nine parts of fresh RPMI 1640 without phenol red) for 4 h to form MTT formazan dye followed by the dye dissolved in DMSO with Sorenson’s buffer for 30 min at room temperature and then the plate was measured at 560 nm, with 690 nm as a reference interval, using a microplate reader. Each experiment was repeated at least three times for each cell line.
(§5) IC50 value is a concentration that inhibits half of the cells in vitro. The half maximal inhibitory concentration (IC50) of the test and control compounds was calculated using XLfit5 or excel spreadsheet and represent in μM at 95% confidence intervals. The proliferation assay results were expressed as the percent inhibition according to the following formula: % Inhibition = [1 - (Absorbance of Treatments /Absorbance of DMSO) × 100]. Three dose response parameters (GI50, TGI, LC50) were calculated according to the following formulas using the absorbance measurements of time zero (Tz), control growth (C), and test growth in the presence of drug (Ti). Growth inhibition of 50% (GI50) was calculated from [(Ti-Tz)/(C-Tz)] × 100 = 50, which is the drug concentration resulting in a 50% reduction in the net growth increase in control cells during the drug incubation. The drug concentration resulting in total growth inhibition (TGI) was calculated from Ti = Tz. The LC50 indicating a net loss of cells following treatment was calculated from [(Ti-Tz)/Tz] × 100 = −50.

[11] = test system: A549; experiment: cells; conditions: Homo sapiens
Procedure: as §1, §4, §5

[12] = test system: HT29; experiment: cells; conditions: Homo sapiens
Procedure: as §1, §4, §5

[13] = test system: C6 (Rat brain glioma); experiment: cells; conditions: Rattus norvegicus
Procedure: as §1, §4, §5

[14] = test system: Hep3B; experiment: cells; conditions: Homo sapiens
Procedure: as §1, §4, §5

[15] = test system: HeLa; experiment: cells; conditions: Homo sapiens
Procedure: as §1, §4, §5

[16] = test system: normal FL cells; experiment: cells; conditions: FL normal cells, MTT
Procedure: as §1, §4, §5

[17] = in vitro; conditions: human, LC50
Procedure: as §1, §4, §5

MIC [2]: > 1000 µg/mL | MIC [3]: > 1000 µg/mL | MIC [4]: 1000 µg/mL (≈ 1690 µM) | MIC [5]: > 1000 µg/mL | MIC [6]: > 1000 µg/mL | MIC [7]: 125 µg/mL (≈ 211 µM) | MIC ([7]; Streptococcus mutans, ATCC35668, 24 h, read-out: MIC): 62.5 to 125 µg/mL (≈ 105 to 211 µM) | GI50 ([10]; MCF7, MTT): 1.41 µg/mL (≈ 2.38 µM) | IC50 ([10]; MCF7, MTT, read-out: IC50): 4.12 µg/mL (≈ 6.95 µM) | GI50 ([11]; A549, MTT): 23.8 µg/mL (≈ 40.1 µM) | IC50 ([11]; A549, MTT, read-out: IC50): > 500 µg/mL | GI50 ([12]; HT-29, HT29, MTT): 1.47 µg/mL (≈ 2.48 µM) | IC50 ([12]; HT-29, HT29, MTT, read-out: IC50): 3.26 µg/mL (≈ 5.5 µM) | GI50 ([13]; C6, MTT): 1.4 µg/mL (≈ 2.36 µM) | IC50 ([13]; C6, MTT, read-out: IC50): 4.38 µg/mL (≈ 7.39 µM) | GI50 ([14]; MTT): 1.99 µg/mL (≈ 3.36 µM) | IC50 ([14]; MTT, read-out: IC50): 7.18 µg/mL (≈ 12.1 µM) | GI50 ([15]; MTT): 1.49 µg/mL (≈ 2.51 µM) | IC50 ([15]; MTT, read-out: IC50): 9.13 µg/mL (≈ 15.4 µM)
Structure (SMILES): CC(=O)OC[C@H]1O[C@@H](Nc2nc(-c3ccc(C)cc3)cc(-c3ccccn3)n2)[C@H](OC(C)=O)[C@@H](OC(C)=O)[C@@H]1OC(C)=O [Compound 16, 2,3,4,6-tetra-O-acetyl-N-[4-(4-methylphenyl)-6-pyridin-2-ylpyrimidin-2-yl]-β-D-glucopyranosylamine]
cytotoxicity at 24 h, 25 μg/mL ([1]; HT29, 25 μg/mL): 26.4% | cytotoxicity at 24 h, 50 μg/mL ([1]; HT29, 50 μg/mL): 34.4% | cytotoxicity at 24 h, 75 μg/mL ([1]; HT29, 75 μg/mL): 48.6% | cytotoxicity at 24 h, 100 μg/mL ([1]; HT29, 100 μg/mL): 70.2% | cytotoxicity at 24 h, 25 μg/mL ([8]; 25 μg/mL): 35.7% | cytotoxicity at 24 h, 50 μg/mL ([8]; 50 μg/mL): 62.6% | cytotoxicity at 24 h, 75 μg/mL ([8]; 75 μg/mL): 77.1% | cytotoxicity at 24 h, 100 μg/mL ([8]; 100 μg/mL): 99.2% | cytotoxicity at 24 h, 25 μg/mL ([9]; C6, 25 μg/mL): 17.1% | cytotoxicity at 24 h, 50 μg/mL ([9]; C6, 50 μg/mL): 28.9% | cytotoxicity at 24 h, 75 μg/mL ([9]; C6, 75 μg/mL): 63.2% | cytotoxicity at 24 h, 100 μg/mL ([9]; C6, 100 μg/mL): 84.7% | LC50 (concentration causing 50% net cell loss relative to time zero) ([10]; MCF7, read-out: LC50): 495 µg/mL (≈ 835 µM) | IC (total growth inhibition) ([10]; MCF7, MTT, read-out: TGI): 4.29 µg/mL | LC50 (concentration causing 50% net cell loss) ([11]; A549, read-out: LC50): > 500 µg/mL | IC (total growth inhibition) ([11]; A549, MTT, read-out: TGI): > 500 µg/mL | LC50 (concentration giving 50% net cell loss relative to time zero) ([12]; HT-29, read-out: LC50): 122 µg/mL (≈ 205 µM) | IC (total growth inhibition) ([12]; HT-29, HT29, MTT, read-out: TGI): 3.88 µg/mL | LC50 (concentration giving 50% net cell loss relative to time zero) ([13]; read-out: LC50): 22.9 µg/mL (≈ 38.6 µM) | IC (total growth inhibition) ([13]; C6, MTT, read-out: TGI): 2.8 µg/mL | IC (total growth inhibition) ([14]; MTT, read-out: TGI): 7.33 µg/mL | LC50 (concentration causing 50% net cell loss relative to time zero) ([14]; read-out: LC50): 326 µg/mL (≈ 550 µM) | IC (total growth inhibition) ([15]; MTT, read-out: TGI): 3.28 µg/mL | LC50 (concentration causing 50% net cell loss) ([15]; read-out: LC50): 34.1 µg/mL (≈ 57.6 µM) | GI50 [16]: 1.71 µg/mL (≈ 2.89 µM) | IC50 ([16]; read-out: IC50): 6.31 µg/mL (≈ 10.6 µM) | IC (total growth inhibition) ([16]; read-out: TGI): 6.44 µg/mL | LC50 (concentration causing 50% net cell loss) [17]: > 500 µg/mL
